Assay [1] concerns primary cultures (TUE-PC1-6). Kind of assay: Viability of patient-derived primary cultures. The format is cell-based. The note with it: six primary cultures (TUE-PC1-6), 72 h. From the text:
Primary tumor tissue was obtained from fresh residual material upon resection at the Department of Neurosurgery, University Hospital Tübingen. The inventors cut the tissue in small pieces, washed it using Hanks Balanced Salt Solution (HBSS) (Gibco, Carlsbad, CA, US) and digested it by collagenase and dispase (Roche, Basel, CH). To remove any remaining erythrocytes, they used red blood cell lysis buffer (Sigma Aldrich, St. Louis, MO, US). The inventors then cultured the cells as GS cells in Neurobasal®-A medium. They first evaluated AZD6738 sensitivity of each primary culture and selected two concentrations. […] To evaluate combination treatment analyses, the inventors leveraged the Bliss independence Criterion.
The inventors seeded 5,000 or 10,000 cells, respectively, on day one, treated the next day in serum-free medium and incubated for up to 72 h. Subsequently, they measured cell viability using CellTiterBlue reagent (Promega, Madison, WI, US) according to manufacturer's instructions with a GloMax (Promega, Madison, Wl, US). The inventors normalized measurements to untreated cells.

The subject of assay [2] is LN229 and LNZ308 cells. Kind of assay: DigiWest Multiplex Protein Analysis, across both cell lines. It counts as cell-based, human. The note with it: 72 h. The protocol: After 72 h of AZD6738 treatment, the inventors detached and counted the cells and subsequently snap froze them in liquid nitrogen. For protein preparation, they kept the cells on ice and added 20-30 µL of lysis buffer (LDS Lysis Buffer (Life Technologies, Carlsbad, CA, USA), supplemented with reducing agent (Thermo Fisher Scientific, Waltham, MA, USA) and protease- (Roche Diagnostics GmbH, Mannheim, Germany) and phosphatase-inhibitor (Roche)). Proteins were denatured by heating to 95°C for 10 min before the lysates were transferred to QiaShredder Eppendorf tubes (Eppendorf, Hamburg, Germany). After centrifugation (16,000g, 5 min, RT), eluates were stored at -80°C until further use. Protein quantification was performed using in-gel staining. 1 µL of each original lysate was diluted 1:10 (v/v) in lysis buffer. The respective aliquots were denatured for 10 mins at 70°C and 10 µL were run in a NuPAGE 4-12% Bis-Tris precast gel (Thermo Fisher Scientific) according to the manufacturer's instructions. The gel was washed with water and proteins were stained with BlueBandit (VWR, Darmstadt, Germany) for 1 h. The gel was de-stained over night with ddH2O before detection on a LI-COR (LI-COR, Bad Homburg, Germany) instrument. Analysis and protein quantification was performed using ImageStudio.
The DigiWest analysis was performed as described in the art. In brief, the inventors loaded 10 µg of cellular protein on an SDS-polyacrylamide gel and size-separated them using the commercial NuPAGE system (Life Technologies). Size-separated proteins were blotted onto a PVDF membrane and biotinylated on the membrane using NHS-PEG12-Biotin (50 µM) in PBST for 1 h. After drying of the membrane, the samples lanes were cut into 96 strips of 0.5 mm width using an automated cutting plotter (Silhouette America, West Orem, UT, USA) each corresponding to a defined molecular weight fraction. Each of the strips was placed in one well of a 96-well plate and 10 µl elution buffer (8 M urea, 1% Triton-X100 in 100 mM Tris-HCl pH 9.5) was added. The eluted proteins were diluted with 90 µl of dilution buffer (5% BSA in PBS, 0.02% sodium azide, 0.05% Tween-20) and each of the protein fractions was incubated with 1 distinct magnetic color-coded bead population (Luminex, Austin, USA) coated with neutravidin. The biotinylated proteins bind to the neutravidin beads such that each bead color represents proteins of one specific molecular weight fraction. All 96 protein loaded bead populations were mixed resulting in reconstitution of the original lane. […] Beads were washed twice prior to readout on a Luminex FlexMAP 3D.
For quantification of the antibody specific signals, we used the DigiWest Analyzer software; it automatically identifies peaks of appropriate molecular weight and calculates the peak area. […]

SMILES strings stand for the structures.

As to `C[C@@H]1COCCN1c1cc(C2([S@](C)(=N)=O)CC2)nc(-c2cc[nH]c3nccc2-3)n1` [AZD6738, ceralasertib], the cell viability entry in assay [1] is “dose-dependent reduction”. In assay [2] (across both cell lines), the NF-κB result is “significant upregulation”; the “markers for ATR target engagement such as pATR, Chk2, and Ku80” value is “significant reduction”. Also, in assay [2] (both cell lines), the “Cleaved PARP” value is listed as “upregulated” and the pH2A.X entry is “Upregulation”.

For the origin of these results see patent EP4473972A1, “COMBINATIONS COMPRISING AN ATR INHIBITOR WITH SYNERGISTIC EFFECT AGAINST GLIOMAS” (Eberhard-Karls-Universität Tübingen, priority 2023, dated 2024).
